Assay results as given in PubChem BioAssay (NCI).
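1) Cells in 96-well plates. 2) Compound, 48 h, 5 concentrations. 3) Linear interpolation between surrounding doses. 4) Unreached endpoint = highest concentration. GI50: concentration for 50% inhibition of growth. TGI is the concentration that stops growth completely.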

Tests used:
Experiment in all cases: inhibition of tumour cell growth, NCI panel, 48 h
786-0 renal = system: 786-0 renal
A549 NSCLC = system: A549 NSCLC
ACHN renal = system: ACHN renal
BT-549 breast = system: BT-549 breast
CAKI-1 renal = system: CAKI-1 renal
COLO 205 colon = system: COLO 205 colon
DU-145 prostate = system: DU-145 prostate
EKVX NSCLC = system: EKVX NSCLC
HCC-2998 colon = system: HCC-2998 colon
HCT-116 colon = system: HCT-116 colon
HCT-15 colon = system: HCT-15 colon
HL-60(TB) leukemia = system: HL-60(TB) leukemia
HOP-62 NSCLC = system: HOP-62 NSCLC
HOP-92 NSCLC = system: HOP-92 NSCLC
HS 578T breast = system: HS 578T breast
HT29 colon = system: HT29 colon
IGROV1 ovarian = system: IGROV1 ovarian
K-562 leukemia = system: K-562 leukemia
KM12 colon = system: KM12 colon
LOX IMVI melanoma = system: LOX IMVI melanoma
MALME-3M melanoma = system: MALME-3M melanoma
MCF7 breast = system: MCF7 breast
MDA-MB-231 breast = system: MDA-MB-231 breast
MDA-MB-435 = system: MDA-MB-435
MOLT-4 leukemia = system: MOLT-4 leukemia
NCI-H226 lung = system: NCI-H226 lung
NCI-H23 lung = system: NCI-H23 lung
NCI-H460 lung = system: NCI-H460 lung
NCI-H522 lung = system: NCI-H522 lung
NCI/ADR-RES ovarian = system: NCI/ADR-RES ovarian
OVCAR-3 ovarian = system: OVCAR-3 ovarian
OVCAR-4 ovarian = system: OVCAR-4 ovarian
OVCAR-5 ovarian = system: OVCAR-5 ovarian
OVCAR-8 ovarian = system: OVCAR-8 ovarian
PC-3 prostate = system: PC-3 prostate
RPMI-8226 leukemia = system: RPMI-8226 leukemia
RXF 393 renal = system: RXF 393 renal
SF-268 CNS = system: SF-268 CNS
SF-295 CNS = system: SF-295 CNS
SF-539 CNS = system: SF-539 CNS
SK-MEL-2 melanoma = system: SK-MEL-2 melanoma
SK-MEL-28 melanoma = system: SK-MEL-28 melanoma
SK-MEL-5 melanoma = system: SK-MEL-5 melanoma
SK-OV-3 ovarian = system: SK-OV-3 ovarian
SN12C renal = system: SN12C renal
SNB-19 CNS = system: SNB-19 CNS
SNB-75 CNS = system: SNB-75 CNS
SW-620 colon = system: SW-620 colon
T-47D breast = system: T-47D breast
TK-10 renal = system: TK-10 renal
U251 CNS = system: U251 CNS
UACC-257 melanoma = system: UACC-257 melanoma
UACC-62 melanoma = system: UACC-62 melanoma
UO-31 renal = system: UO-31 renal

Nc1c(C(=O)N/N=C/c2ccco2)cnn1-c1ccnc2c(C(F)(F)F)cccc12
GI50 (786-0 renal): 43.6 µM
TGI (786-0 renal): > 100 µM
GI50 (A549 NSCLC): > 100 µM
TGI (A549 NSCLC): > 100 µM
GI50 (ACHN renal): 38.6 µM
TGI (ACHN renal): > 100 µM
GI50 (BT-549 breast): 18.2 µM
TGI (BT-549 breast): 40.7 µM
GI50 (CAKI-1 renal): 37.5 µM
TGI (CAKI-1 renal): > 100 µM
GI50 (COLO 205 colon): 24.9 µM
TGI (COLO 205 colon): 53.8 µM
GI50 (DU-145 prostate): 18.3 µM
TGI (DU-145 prostate): 36.5 µM
GI50 (EKVX NSCLC): 82.2 µM
TGI (EKVX NSCLC): > 100 µM
GI50 (HCC-2998 colon): 22.8 µM
TGI (HCC-2998 colon): 48.5 µM
GI50 (HCT-116 colon): 18.2 µM
TGI (HCT-116 colon): 32.2 µM
GI50 (HCT-15 colon): 18.5 µM
TGI (HCT-15 colon): 33.1 µM
GI50 (HL-60(TB) leukemia): 25.8 µM
TGI (HL-60(TB) leukemia): 49.5 µM
GI50 (HOP-62 NSCLC): 36.5 µM
TGI (HOP-62 NSCLC): > 100 µM
GI50 (HOP-92 NSCLC): 25.9 µM
TGI (HOP-92 NSCLC): 80.8 µM
GI50 (HS 578T breast): 35.4 µM
TGI (HS 578T breast): 89.1 µM
GI50 (HT29 colon): 19.8 µM
TGI (HT29 colon): 38.8 µM
GI50 (IGROV1 ovarian): 25.4 µM
TGI (IGROV1 ovarian): 80.1 µM
GI50 (K-562 leukemia): 24.2 µM
TGI (K-562 leukemia): 49.1 µM
GI50 (KM12 colon): 31.9 µM
TGI (KM12 colon): 75 µM
GI50 (LOX IMVI melanoma): 17.4 µM
TGI (LOX IMVI melanoma): 31.2 µM
GI50 (MALME-3M melanoma): 73.3 µM
TGI (MALME-3M melanoma): > 100 µM
GI50 (MCF7 breast): 28 µM
TGI (MCF7 breast): 65.4 µM
GI50 (MDA-MB-231 breast): 17.3 µM
TGI (MDA-MB-231 breast): 38.9 µM
GI50 (MDA-MB-435): 26.2 µM
TGI (MDA-MB-435): 75.3 µM
GI50 (MOLT-4 leukemia): 23.9 µM
TGI (MOLT-4 leukemia): 63.5 µM
GI50 (NCI-H226 lung): 88.8 µM
TGI (NCI-H226 lung): > 100 µM
GI50 (NCI-H23 lung): 35 µM
TGI (NCI-H23 lung): > 100 µM
GI50 (NCI-H460 lung): 48.1 µM
TGI (NCI-H460 lung): > 100 µM
GI50 (NCI-H522 lung): 29.5 µM
TGI (NCI-H522 lung): > 100 µM
GI50 (NCI/ADR-RES ovarian): 20.6 µM
TGI (NCI/ADR-RES ovarian): 41.5 µM
GI50 (OVCAR-3 ovarian): 17.8 µM
TGI (OVCAR-3 ovarian): 39 µM
GI50 (OVCAR-4 ovarian): 33.5 µM
TGI (OVCAR-4 ovarian): > 100 µM
GI50 (OVCAR-5 ovarian): 23.3 µM
TGI (OVCAR-5 ovarian): 61.6 µM
GI50 (OVCAR-8 ovarian): 24.2 µM
TGI (OVCAR-8 ovarian): 57.1 µM
GI50 (PC-3 prostate): 19.3 µM
TGI (PC-3 prostate): 49.1 µM
GI50 (RPMI-8226 leukemia): 19.9 µM
TGI (RPMI-8226 leukemia): 54.2 µM
GI50 (RXF 393 renal): 22.7 µM
TGI (RXF 393 renal): 43.7 µM
GI50 (SF-268 CNS): 31.6 µM
TGI (SF-268 CNS): 91.6 µM
GI50 (SF-295 CNS): 38.7 µM
TGI (SF-295 CNS): > 100 µM
GI50 (SF-539 CNS): 19.4 µM
TGI (SF-539 CNS): 41.2 µM
GI50 (SK-MEL-2 melanoma): 57.4 µM
TGI (SK-MEL-2 melanoma): > 100 µM
GI50 (SK-MEL-28 melanoma): 19.1 µM
TGI (SK-MEL-28 melanoma): 36.8 µM
GI50 (SK-MEL-5 melanoma): 30 µM
TGI (SK-MEL-5 melanoma): > 100 µM
GI50 (SK-OV-3 ovarian): 86.4 µM
TGI (SK-OV-3 ovarian): > 100 µM
GI50 (SN12C renal): 20.2 µM
TGI (SN12C renal): 55 µM
GI50 (SNB-19 CNS): 40.3 µM
TGI (SNB-19 CNS): > 100 µM
GI50 (SNB-75 CNS): 28.1 µM
TGI (SNB-75 CNS): 97.7 µM
GI50 (SW-620 colon): 19.9 µM
TGI (SW-620 colon): 37.3 µM
GI50 (T-47D breast): 39.5 µM
TGI (T-47D breast): > 100 µM
GI50 (TK-10 renal): 55.9 µM
TGI (TK-10 renal): > 100 µM
GI50 (U251 CNS): 20.5 µM
TGI (U251 CNS): 40.5 µM
GI50 (UACC-257 melanoma): 95.3 µM
TGI (UACC-257 melanoma): > 100 µM
GI50 (UACC-62 melanoma): 35.9 µM
TGI (UACC-62 melanoma): > 100 µM
GI50 (UO-31 renal): 16.9 µM
TGI (UO-31 renal): 33.7 µM
